From PubChem BioAssay AID248 (DTP/NCI, 2004)
Inconclusive results and toxic doses are left out. Cut-off read from the data, not from the text of the source: active = T/C of 150% or more; inactive = T/C below 125%.

Tested on: L1210 leukemia ip in BDF1 mice, survival T/C
Test: NCI In Vivo Anticancer Drug Screen. Data for tumor model L1210 Leukemia (intraperitoneal) in B6D2F1 (BDF1) mice
Conditions: endpoint: mean survival time, higher = longer survival
Procedure, shortened: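 Read-out is survival time, reported as the treated-group measurement over the vehicle-control measurement.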

[1] = dose: 100.0 mg/kg/injection, schedule: Q01DX001 (ip), vehicle: saline
[2] = dose: 100.0 mg/kg/injection, schedule: Q04DX003 (ip), vehicle: saline
[3] = dose: 200.0 mg/kg/injection, schedule: Q01DX001 (ip), vehicle: saline
[4] = dose: 200.0 mg/kg/injection, schedule: Q04DX003 (ip), vehicle: saline
[5] = dose: 400.0 mg/kg/injection, schedule: Q01DX001 (ip), vehicle: saline
[6] = dose: 400.0 mg/kg/injection, schedule: Q04DX003 (ip), vehicle: saline
[7] = dose: 100.0 mg/kg/injection, schedule: Q01DX009 (ip), vehicle: saline with Tween-80
[8] = dose: 100.0 mg/kg/injection, schedule: Q04DX003 (ip), vehicle: saline with Tween-80
[9] = dose: 200.0 mg/kg/injection, schedule: Q01DX009 (ip), vehicle: saline with Tween-80
[10] = dose: 200.0 mg/kg/injection, schedule: Q04DX003 (ip), vehicle: saline with Tween-80
[11] = dose: 400.0 mg/kg/injection, schedule: Q01DX009 (ip), vehicle: saline with Tween-80
[12] = dose: 400.0 mg/kg/injection, schedule: Q04DX003 (ip), vehicle: saline with Tween-80
[13] = dose: 100.0 mg/kg/injection, schedule: Q04DX002 (ip), vehicle: Klucel (hydroxypropylcellulose) (HPC)
[14] = dose: 100.0 mg/kg/injection, schedule: Q01DX001 (ip), vehicle: carboxymethylcellulose (CMC)
[15] = dose: 100.0 mg/kg/injection, schedule: Q01DX009 (ip), vehicle: water
[16] = dose: 100.0 mg/kg/injection, schedule: Q04DX003 (ip), vehicle: water
[17] = dose: 200.0 mg/kg/injection, schedule: Q01DX001 (ip), vehicle: carboxymethylcellulose (CMC)
[18] = dose: 200.0 mg/kg/injection, schedule: Q01DX009 (ip), vehicle: water
[19] = dose: 200.0 mg/kg/injection, schedule: Q04DX003 (ip), vehicle: water
[20] = dose: 400.0 mg/kg/injection, schedule: Q01DX001 (ip), vehicle: carboxymethylcellulose (CMC)
[21] = dose: 400.0 mg/kg/injection, schedule: Q01DX009 (ip), vehicle: water
[22] = dose: 400.0 mg/kg/injection, schedule: Q04DX003 (ip), vehicle: water
[23] = dose: 100.0 mg/kg/injection, schedule: Q01DX001 (ip), vehicle: Klucel (hydroxypropylcellulose) (HPC)
[24] = dose: 200.0 mg/kg/injection, schedule: Q01DX001 (ip), vehicle: Klucel (hydroxypropylcellulose) (HPC)

Measured: T/C

COc1ccc2nc(-c3ccc(C)cc3)cc(C(=O)O)c2c1
inactive: [1] 92 % of control | [2] 96 % of control | [3] 106 % of control | [4] 94 % of control | [5] 88 % of control | [6] 97 % of control

N#CC(O)c1ccccc1 (stereo unspecified)
inactive: dose: 2.5 mg/kg/injection, schedule: Q01DX009 (ip), vehicle: acetone 101 % of control | dose: 5.0 mg/kg/injection, schedule: Q01DX001 (ip), vehicle: carboxymethylcellulose (CMC) 95 % of control | dose: 5.0 mg/kg/injection, schedule: Q01DX009 (ip), vehicle: acetone 102 % of control | dose: 10.0 mg/kg/injection, schedule: Q01DX001 (ip), vehicle: carboxymethylcellulose (CMC) 91 % of control | dose: 10.0 mg/kg/injection, schedule: Q01DX009 (ip), vehicle: acetone 104 % of control

CCOC(=O)C(=CNc1ccccn1)C(=O)OCC
inactive: [7] 100 % of control | [8] 93 % of control | [9] 104 % of control | [10] 93 % of control | [11] 97 % of control | [12] 97 % of control

c1ccc(-c2ccc(-c3ccccc3)o2)cc1
inactive: [13] 106 % of control | dose: 200.0 mg/kg/injection, schedule: Q04DX002 (ip), vehicle: Klucel (hydroxypropylcellulose) (HPC) 95 % of control | dose: 400.0 mg/kg/injection, schedule: Q04DX002 (ip), vehicle: Klucel (hydroxypropylcellulose) (HPC) 106 % of control

CN1CCN(C(=O)C(c2ccccc2)C2(O)CCCC2)CC1 (stereo unspecified)
inactive: dose: 5.0 mg/kg/injection, schedule: Q01DX001 (ip), vehicle: saline 96 % of control | dose: 10.0 mg/kg/injection, schedule: Q01DX001 (ip), vehicle: saline 105 % of control

NC(c1ccccc1)C(C(=O)O)C(=O)O (stereo unspecified)
inactive: dose: 75.0 mg/kg/injection, schedule: Q04DX003 (ip), vehicle: saline 95 % of control | dose: 150.0 mg/kg/injection, schedule: Q04DX003 (ip), vehicle: saline 94 % of control | dose: 300.0 mg/kg/injection, schedule: Q04DX003 (ip), vehicle: saline 95 % of control

c1cc(N=NNc2cccc(C3=NCCN3)c2)cc(C2=NCCN2)c1
inactive: dose: 7.75 mg/kg/injection, schedule: Q01DX015 (ip), vehicle: water 100 % of control | dose: 15.5 mg/kg/injection, schedule: Q01DX015 (ip), vehicle: water 94 % of control | dose: 31.0 mg/kg/injection, schedule: Q01DX015 (ip), vehicle: water 100 % of control | dose: 62.0 mg/kg/injection, schedule: Q01DX015 (ip), vehicle: water 98 % of control

N#Cc1cnn(CCO)c1N
inactive: [14] 103 % of control | [15] 107 % of control | [16] 115 % of control | [17] 97 % of control | [18] 101 % of control | [19] 110 % of control | [20] 100 % of control | [21] 114 % of control | [22] 104 % of control

NC(Cc1cc(I)c(Oc2ccc(O)c(I)c2)c(I)c1)C(=O)O (stereo unspecified)
inactive: dose: 25.0 micrograms/kg/injection, schedule: Q01DX Z (ip), vehicle: saline 86 % of control | dose: 50.0 micrograms/kg/injection, schedule: Q01DX Z (ip), vehicle: saline 92 % of control | dose: 100.0 micrograms/kg/injection, schedule: Q01DX Z (ip), vehicle: saline 101 % of control | dose: 200.0 micrograms/kg/injection, schedule: Q01DX Z (ip), vehicle: saline 89 % of control

Cc1cccc(C(=O)CC(O)(C(F)(F)F)C(F)(F)F)n1
inactive: [8] 92 % of control | [10] 86 % of control | [12] 90 % of control

O=C(O)c1ccc(C(Cl)C(Cl)(Cl)Cl)cc1O (stereo unspecified)
inactive: [14] 92 % of control | [17] 94 % of control | [20] 96 % of control

CC(=O)OCc1ccc[nH]c1=O
inactive: [2] 104 % of control | [4] 98 % of control | [6] 104 % of control

CCCCCCCCCCCCCCCCN(C)S(=O)(=O)c1ccc(Cl)c(C(F)(F)F)c1
inactive: dose: 100.0 mg/kg/injection, schedule: Q04DX003 (ip), vehicle: Klucel (hydroxypropylcellulose) (HPC) 98 % of control | dose: 200.0 mg/kg/injection, schedule: Q04DX003 (ip), vehicle: Klucel (hydroxypropylcellulose) (HPC) 101 % of control | dose: 400.0 mg/kg/injection, schedule: Q04DX003 (ip), vehicle: Klucel (hydroxypropylcellulose) (HPC) 96 % of control

CN(C)NP(=O)(NN(C)C)N(C)C
inactive: [2] 100 % of control | [4] 100 % of control | [6] 94 % of control

CC1CCC2C(C)C3C(CC4C5CC=C6CC(OC7OC(COC8OC(CO)C(OC9OC(C)C(O)C(O)C9O)C(O)C8O)C(O)C(O)C7O)CCC6(C)C5CCC43C)N2C1 (stereo unspecified)
inactive: dose: 50.0 mg/kg/injection, schedule: Q04DX002 (ip), vehicle: Klucel (hydroxypropylcellulose) (HPC) 105 % of control | [13] 102 % of control

O=C(O)CSc1ccc(NC(=O)Nc2ccccc2F)cc1
inactive: [1] 90 % of control | [7] 92 % of control | [2] 100 % of control | [3] 88 % of control | [9] 89 % of control | [4] 94 % of control | [5] 92 % of control | [11] 86 % of control | [6] 92 % of control

Cc1nc(N)[nH]c(=O)c1CCCNC(=O)c1ccccc1
inactive: [23] 94 % of control | [24] 91 % of control | dose: 400.0 mg/kg/injection, schedule: Q01DX001 (ip), vehicle: Klucel (hydroxypropylcellulose) (HPC) 87 % of control

Cc1ncc(C#N)n1C(C)c1ccccc1 (stereo unspecified)
inactive: [23] 103 % of control | [24] 100 % of control

C/C(=C\Cn1cc([N+](=O)[O-])ccc1=O)CCC(=O)O
inactive: [15] 108 % of control | dose: 100.0 mg/kg/injection, schedule: Q04DX003 (ip), vehicle: other 102 % of control | [18] 96 % of control | dose: 200.0 mg/kg/injection, schedule: Q04DX003 (ip), vehicle: other 98 % of control | [21] 97 % of control | dose: 400.0 mg/kg/injection, schedule: Q04DX003 (ip), vehicle: other 102 % of control

CC(C)NC(=S)Nc1ccccc1
inactive: dose: 75.0 mg/kg/injection, schedule: Q01DX001 (ip), vehicle: other 102 % of control

CC(=O)OC(C(=O)O)C(OC(C)=O)C(=O)NCCO (stereo unspecified)
inactive: dose: 100.0 mg/kg/injection, schedule: Q01DX001 (ip), vehicle: water 94 % of control | [16] 87 % of control | dose: 200.0 mg/kg/injection, schedule: Q01DX001 (ip), vehicle: water 96 % of control | [19] 95 % of control | dose: 400.0 mg/kg/injection, schedule: Q01DX001 (ip), vehicle: water 94 % of control | [22] 97 % of control
